{"source": "patent US20060223050A1", "about": "“Therapeutic platelets and methods” (The Regents of the University of California Office of …, priority 2003, published 2006)", "key": {"erythrocyte membranes": {"system": "erythrocyte membranes", "experiment": "FTIR membrane phase transitions of erythrocytes"}, "human platelets [1]": {"system": "human platelets", "experiment": "Loading of platelets with trehalose (anthrone quantification)", "format": "cell-based", "conditions": "37° C., from 0 to 2 hours", "method": "Washing of Platelets. Platelet concentrations were obtained from the Sacramento blood center or from volunteers in our laboratory. Platelet rich plasma was centrifuged for 8 minutes at 320×g to remove erythrocytes and leukocytes. The supernatant was pelleted and washed two times (480×g for 22 minutes, 480×g for 15 minutes) in buffer A (100 MM NaCl, 10 MM KCl, 10 mM EGTA, 10 mM imidazole, pH 6.8). Platelet counts were obtained on a Coulter counter T890 (Coulter, Inc., Miami, Fla.).\nLoading of Platelets with Trehalose. Washed platelets in a concentration of 1-2 10^9 platelets/ml were incubated at various temperatures in the presence of 1-20 mg/ml trehalose. […] The amount of trehalose in the platelets was quantified using the anthrone reaction (Umbreit et al., Mamometric and Biochemical Techniques, 5th Edition, 1972). […] Then the samples were cooled on ice and the absorbance was measured at 620 nm on a Perkin Elmer spectrophotometer. The amount of platelet associated trehalose was determined using a standard curve of trehalose.\nQuantification of Trehalose and LYCH Concentration. Uptake was calculated for each sample as micrograms of trehalose or LYCH per platelet. The internal trehalose concentration was calculated assuming a platelet radius of 1.2 μm and by assuming that 50% of the platelet volume is taken up by the cytosol (rest is membranes). […]"}, "human platelets [2]": {"system": "human platelets", "experiment": "Stability of platelets during trehalose incubation (microscopy, flow cytometric analysis)", "format": "cell-based", "method": "The uptake of trehalose is linear in the range from 0 to 30 mM external trehalose. The highest internal trehalose concentration is obtained with 50 mM external trehalose. At higher concentrations than 50 mM the internal trehalose concentration decreases again. Even when the loading buffer at these high trehalose concentrations is corrected for isotonicity by adjusting the salt concentration, the loading efficiency remains low. Platelets become swollen after 4 hours incubation in 75 mM trehalose.\nThe stability of the platelets during a 4 hours incubation period was studied using microscopy and flow cytometric analysis. […] No signs of microvesicle formation could be observed after 4 hours incubation, as can be judged by the stable relative proportion of microvesicle gated cells (less than 3%). The formation of microvesicles is usually considered as the first sign of platelet activation (Owners et al., Trans. Med. Rev., 8, 27-44, 1994). Characteristic antigens of platelet activation include: glycoprotein 53 (gp53, a lysosomal membrane marker), PECAM-1 (platelet endothelial cell adhesion molecule-1, an alpha granule constituent), and P-selection (an alpha granule membrane protein)."}, "[3]": {"experiment": "State diagram (glass transition temperature vs water content) by differential scanning calorimeter", "format": "physicochemical", "conditions": "FIG. 40, assuming sample temperature of −50° C.", "from_the_text": "In another embodiment of the invention, it has been discovered that protein alters the physical properties of a preservative solution. More specifically, it has been discovered that the protein albumin alters the physical properties of the oligosaccharide trehalose solution as broadly illustrated in FIG. 40, which are graphs representing state diagrams (e.g., glass transition temperature vs. water content) for trehalose:water mixtures and for trehalose-albumin(1/1, wt/wt):water mixtures. A state diagram is a measure of the glass transition temperatures (Tg) for the respective mixtures (i.e., the various preservative:water mixtures and the various preservative-protein:water mixtures). The state diagrams broadly illustrated in FIG. 40 were obtained by respectively freeze-drying trehalose alone and freeze-drying a 1:1 (wt:wt) trehalose:albumin solution, and then adding back known amounts of water to the respective freeze-dried solutions. The glass transition temperatures for the trehalose:water solution and for the trehalose/albumin:solution were measured by a differential scanning calorimeter with conventional methods."}, "mesenchymal stem cells": {"system": "mesenchymal stem cells", "experiment": "Growth curves of mesenchymal stem cells with 90 mM trehalose", "format": "cell-based, human", "method": "Growth Curves. MSCs were plated into 12-welled plates at approximately the same seeding density used for T-185 flasks in standard Osiris protocols (5900 cells/cm^2 with fluid volume of 0.189 mL/cm^2). Three wells for each condition at each time point were trypsinized and counted. Data for cells grown in the presence of trehalose were lost for the first two time points. FIG. 13 is a graph illustrating growth curves for the mesenchymal stem cells in the presence or absence of 90 mM trehalose with the open triangle data representing cells grown in standard medium for 24 hours, after which 90 mM trehalose was added."}, "[4]": {"conditions": "erythrocytes incubated 37° C. one hour with MβCD"}}, "note": "“And” between values parts separate entries of the source, which are not always exact repeats. Identical values can stand only once."}
{"molecule": "CC(C)c1c(C(=O)Nc2ccccc2)c(-c2ccccc2)c(-c2ccc(F)cc2)n1CC[C@@H](O)C[C@@H](O)CC(=O)O", "note": "[LIPITOR]", "values": [{"measurement": "total wavenumber excursion", "setting": "erythrocyte membranes; from −5 to 45° C., erythrocytes of a donor who used LIPITOR (other donors 0.8)", "value": "~1.5", "unit": "cm⁻¹"}]}
{"molecule": "OC[C@H]1O[C@H](O[C@H]2O[C@H](CO)[C@@H](O)[C@H](O)[C@H]2O)[C@H](O)[C@@H](O)[C@@H]1O", "note": "[trehalose]", "values": [{"measurement": "trehalose uptake", "setting": "human platelets [1]", "value": "2.8×10^−11 mol/m^2s"}, {"measurement": "morphological changes", "setting": "human platelets [2]; 4 hours at 37° C., 25 mM external trehalose", "value": "No morphological changes"}, {"measurement": "platelet morphology", "setting": "human platelets [2]; 4 hours incubation at 37° C. in 75 mM trehalose", "value": "swollen"}, {"measurement": "relative proportion of microvesicle gated cells", "setting": "human platelets [2]; 4 hours incubation, flow cytometry", "value": "less than 3%"}, {"measurement": "water content at which sample enters the glassy state", "setting": "[3]", "value": "below 0.15 gram H2O/gram dry wt"}, {"measurement": "effect on growth of the cells", "setting": "mesenchymal stem cells; after the third day", "value": "cell count started to drop significantly"}, {"measurement": "effect on growth of the cells", "setting": "mesenchymal stem cells; up to the third day", "value": "did not interfere with growth of the cells"}]}
{"molecule": "methyl-β-cyclodextrin [MβCD]", "values": [{"measurement": "High Transition, Cooperativity", "setting": "erythrocyte membranes; [4]", "value": "0.091 ± 0.020", "unit": "cm^−1/° C."}, {"measurement": "High Transition, Transition Temperature", "setting": "erythrocyte membranes; [4]", "value": "35.4 ± 1.5", "unit": "°C"}, {"measurement": "Low Transition, Cooperativity", "setting": "erythrocyte membranes; [4]", "value": "0.051 ± 0.004", "unit": "cm^−1/° C."}, {"measurement": "Low Transition, Transition Temperature", "setting": "erythrocyte membranes; [4]", "value": "15.3 ± 0.8", "unit": "°C"}, {"measurement": "Middle Transition, Cooperativity", "setting": "erythrocyte membranes; [4]", "value": "0.095 ± 0.015", "unit": "cm^−1/° C."}, {"measurement": "Middle Transition, Transition Temperature", "setting": "erythrocyte membranes; [4]", "value": "25 °C and 26.0 ± 0.8 °C"}, {"measurement": "wavenumber excursion of lipid CH2 band", "setting": "erythrocyte membranes; from −5 to 45° C., after cholesterol removal (control 0.7)", "value": 2.9, "unit": "cm⁻¹"}]}
